Test results: PMC6167002 (Journal of Medicinal Chemistry, 2018)

The compounds below were run on T1, T. brucei (assay: microbe, parasite or virus in culture). Conditions: Trypanosoma brucei, 73 h.
T1 construct: s427
Design: species or system T. b. brucei s427 bloodstream form; bloodstream T. b. brucei viability, resazurin fluorescence
Protocol: T.brucei cell viability assays were carried out as described previously.[6] In brief, bloodstream T. b. brucei s427 was cultured at 37 °C in modified HMI9 medium (56 μM 1-thioglycerol was substituted for 200 μM 2-mercaptoethanol) and quantified using a hemocytometer. Cell culture plates were stamped with 1 μL of an appropriate concentration of test compound in DMSO followed by the addition of 200 μL of trypanosome culture (10^4 cells ml^–1) to each well except for one column that received media only. Culture plates of T. brucei cells were incubated at 37 °C in an atmosphere of 5% CO2 for 69 h before the addition of 20 μL of resazurin (final concentration, 50 μM). After a further 4 h incubation, fluorescence was measured (excitation 528 nm; emission 590 nm) using a BioTek flx800 plate reader.

| Structure (SMILES) | EC50 |
| --- | --- |
| CC(C)Cc1ccc2ncccc2c1NS(=O)(=O)c1ccc(CCCOC[C@H]2COCCN2C)cc1 [S6, (S)-N-(6-isobutylquinolin-5-yl)-4-(3-((4-methylmorpholin-3-yl)methoxy)propyl)benzenesulfonamide] | 250 nM |
| CC(C)Cc1ccc2ncccc2c1NS(=O)(=O)c1ccc(CCCOC[C@@H]2CCCCN2)cc1 [S3, (S)-N-(6-isobutylquinolin-5-yl)-4-(3-(piperidin-2-ylmethoxy)propyl)benzenesulfonamide] | 850 nM |
| CC(C)Cc1ccc2ncccc2c1NS(=O)(=O)c1ccc(CCCO[C@@H]2C[C@H]3CC[C@@H](C2)N3C)cc1 [compound 41, 41] | 91 nM |
| CC(C)Cc1ccc2ncccc2c1NS(=O)(=O)c1ccc(CCCO[C@@H]2CCCN(C)C2)cc1 [compound 43, (R)-N-(6-isobutylquinolin-5-yl)-4-(3-((1-methylpiperidin-3-yl)oxy)propyl)benzenesulfonamide] | 39 nM |
| CC(C)Cc1ccc2ncccc2c1NS(=O)(=O)c1ccc(CCCCC2CCNCC2)cc1 [compound 33, N-(6-isobutylquinolin-5-yl)-4-(4-(piperidin-4-yl)butyl)benzenesulfonamide] | 21 nM |
| CC(C)Cc1ccc2ncccc2c1NS(=O)(=O)c1ccc(CCCC2CCNCC2)cc1 [S1, N-(6-isobutylquinolin-5-yl)-4-(3-(piperidin-4-yl)propyl)benzenesulfonamide] | 25 nM |
| CC(C)Cc1ccc2ncccc2c1NS(=O)(=O)c1ccc(CCCC2CCN(C)CC2)cc1 [compound 31, N-(6-isobutylquinolin-5-yl)-4-(3-(1-methylpiperidin-4-yl)propyl)benzenesulfonamide] | 9 nM |
| CC(C)Cc1ccc2ncccc2c1NS(=O)(=O)c1ccc(CCCN2CCN3CCC[C@@H]3C2)cc1 [compound 34, (R)-4-(3-(hexahydropyrrolo[1,2-a]pyrazin-2(1H)-yl)propyl)-N-(6-isobutylquinolin-5-yl)benzenesulfonamide] | 40 nM |
| CC(C)Cc1ccc2ncccc2c1NS(=O)(=O)c1ccc(CCCO[C@H]2C[C@H]3CC[C@@H](C2)N3C)cc1 [compound 42, 42] | 9 nM |
| CC(C)Cc1ccc2ncccc2c1NS(=O)(=O)c1ccc(CCCOC[C@@H]2CNCCO2)cc1 [compound 44, (S)-N-(6-isobutylquinolin-5-yl)-4-(3-(morpholin-2-ylmethoxy)propyl)benzenesulfonamide] | 39 nM |
| CC(C)Cc1ccc2ncccc2c1NS(=O)(=O)c1ccc(CCCOC[C@H]2COCCN2)cc1 [S5, (S)-N-(6-isobutylquinolin-5-yl)-4-(3-(morpholin-3-ylmethoxy)propyl)benzenesulfonamide] | 710 nM |
| CC(C)Cc1ccc2ncccc2c1NS(=O)(=O)c1ccc(CCCN2CCN3CCC[C@H]3C2)cc1 [S2, (S)-4-(3-(hexahydropyrrolo[1,2-a]pyrazin-2(1H)-yl)propyl)-N-(6-isobutylquinolin-5-yl)benzenesulfonamide] | 150 nM |
| CC(C)Cc1ccc2ncccc2c1NS(=O)(=O)c1ccc(CCCCN2C[C@@H](C)N[C@@H](C)C2)cc1 [compound 40, 4-(4-((3S,5R)-3,5-dimethylpiperazin-1-yl)butyl)-N-(6-isobutylquinolin-5-yl)benzenesulfonamide] | 350 nM |
| CC(C)Cc1ccc2ncccc2c1NS(=O)(=O)c1ccc(CCCOC[C@@H]2CCCN(C)C2)cc1 [S4, (R)-N-(6-isobutylquinolin-5-yl)-4-(3-((1-methylpiperidin-3-yl)methoxy)propyl)benzenesulfonamide] | 10 nM |
| CC(C)Cc1ccc2ncccc2c1NS(=O)(=O)c1ccc(CCCCN2CCCN(C)CC2)cc1 [compound 37, N-(6-isobutylquinolin-5-yl)-4-(4-(4-methyl-1,4-diazepan-1-yl)butyl)benzenesulfonamide] | 59 nM |
| CC(C)Cc1ccc2ncccc2c1NS(=O)(=O)c1ccc(CCCCC2CCN(C)CC2)cc1 [compound 32, N-(6-Isobutylquinolin-5-yl)-4-(4-(1-methylpiperidin-4-yl)butyl)benzenesulfonamide] | 19 nM |
| CC(C)Cc1ccc2ncccc2c1NS(=O)(=O)c1ccc(CCCCN2CCNCC2)cc1 [compound 39, N-(6-isobutylquinolin-5-yl)-4-(4-(piperazin-1-yl)butyl)benzenesulfonamide] | 180 nM |
| CC(C)Cc1ccc2ncccc2c1NS(=O)(=O)c1ccc(CCCCN2CCN3CCC[C@@H]3C2)cc1 [compound 35, (R)-4-(4-(hexahydropyrrolo[1,2-a]pyrazin-2(1H)-yl)butyl)-N-(6-isobutylquinolin-5-yl)benzenesulfonamide] | 250 nM |
| CC(C)Cc1ccc2ncccc2c1NS(=O)(=O)c1ccc(CCCN2CCCN(C)CC2)cc1 [compound 36, N-(6-isobutylquinolin-5-yl)-4-(3-(4-methyl-1,4-diazepan-1-yl)propyl)benzenesulfonamide] | 18 nM |
| CC(C)Cc1ccc2ncccc2c1NS(=O)(=O)c1ccc(CCCN2CCN(C)CC2)cc1 [compound 38, N-(6-isobutylquinolin-5-yl)-4-(3-(4-methylpiperazin-1-yl)propyl)benzenesulfonamide] | 84 nM |

The compounds below were run against T2, TbNMT (Trypanosoma brucei N-myristoyltransferase) (Trypanosoma brucei, UniProt Q388H8) (assay: scintillation proximity assay with [3H]myristoyl-CoA and biotinylated CAP5.[…] peptide). Conditions: not given.
T2 construct: gene Tb10.61.2550
Format: biochemical

T2 sequence (Q388H8 entry or part of it): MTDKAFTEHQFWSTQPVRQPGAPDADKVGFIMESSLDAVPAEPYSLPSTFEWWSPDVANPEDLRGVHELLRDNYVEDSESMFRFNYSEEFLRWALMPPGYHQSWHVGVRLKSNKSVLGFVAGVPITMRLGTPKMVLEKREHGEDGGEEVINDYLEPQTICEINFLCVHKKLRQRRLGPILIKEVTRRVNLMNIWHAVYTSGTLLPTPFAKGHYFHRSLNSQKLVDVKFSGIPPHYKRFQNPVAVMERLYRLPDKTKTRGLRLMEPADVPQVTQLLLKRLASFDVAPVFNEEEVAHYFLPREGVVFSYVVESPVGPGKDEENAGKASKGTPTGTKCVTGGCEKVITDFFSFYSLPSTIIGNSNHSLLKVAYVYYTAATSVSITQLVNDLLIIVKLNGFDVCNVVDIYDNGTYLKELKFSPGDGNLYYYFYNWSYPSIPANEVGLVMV

| Structure (SMILES) | IC50 |
| --- | --- |
| CC(C)Cc1ccc2nn(C)cc2c1NS(=O)(=O)c1ccc(CCCCC2CCN(C)CC2)cc1 [compound 54, N-(5-Isobutyl-2-methyl-2H-indazol-4-yl)-4-(4-(1-methylpiperidin-4-yl)butyl)benzenesulfonamide] | < 5 nM |
| CC(C)Cc1ccc2nn(C)cc2c1NS(=O)(=O)c1ccc(CCCO[C@@H]2C[C@H]3CC[C@@H](C2)N3C)cc1 [compound 60] | 5 nM |
| CC(C)Cc1ccc2ncccc2c1NS(=O)(=O)c1ccc(CCCCC2CCN(C)CC2)cc1 [compound 32, N-(6-Isobutylquinolin-5-yl)-4-(4-(1-methylpiperidin-4-yl)butyl)benzenesulfonamide] | < 5 nM |
